Values quoted from earlier work as cited in patent publication US8242056B2, “Agriculture actives delivery composition comprising boron and persulfate ion-crosslinked polyvinyl alcohol microcapsules and method of use thereof” (Appleton Papers Inc., priority 2008, dated 2012).
Like-named read-outs stand apart in the source and are kept apart here.

Assays:
[1] = half ionized and half un-ionized at its pKa

## COc1cc(OC)nc(NC(=O)NS(=O)(=O)c2ncccc2C(=O)N(C)C)n1 [nicosulfuron]
pH5
  Water solubility: 360 ppm
pH 6.9
  Water solubility: 12,200 ppm
pH 8.8
  Water solubility: 29,200 ppm
[1]
  pKa: 4.3
